Data: patent US20230338541A1, “USE OF HIGH MOLECULAR WEIGHT HYALURONIC ACID AS OCULAR TRANSPORTING VEHICLE” (I.COM MEDICAL GMBH, priority 2020, published 2023)

Assay: Pre-test: latanoprost dissolved in the 0.15% hylan A vehicle, HPLC
Assay type: physicochemical
Conditions: 0.15% w/v hylan A vehicle, stirred 18 hours at 40° C., 25 or 50 μg/ml added
Experimental: Sterile bulk solution for the production of COMFORT SHIELD® MDS eye drops (i.com medical GmbH, Munich, Germany) was used as vehicle for the preparation of prototype latanoprost bulk solution (PLBS). The vehicle contained 0.15% w/v hylan A (HA with 2.9 m^3/kg intrinsic viscosity) dissolved in phosphate buffered saline solution (8.035 g/l NaCl; 1.2 mmol/1 Na2HPO4/NaH2PO4; pH 7.4). Latanoprost was obtained from Yonsung Fine Chemicals Co. Ltd., Gyeonggi-do, Republic of Korea. PLBS was prepared by medi-pharm Laboratorium GmbH, Falkensee, Germany by dissolving 20±1 μg/ml latanoprost in the vehicle.
In a pre-test 25 μg/ml and 50 μg/ml latanoprost were added to the vehicle and the solution stirred for 18 hours at 40° C. The latanoprost content was determined by HPLC using a Hypersil BDS C18 5 μg, 150.0×4.0 mm column (VDS optilab) and a UV detector (200 nm).

CC(C)OC(=O)CCC/C=C\C[C@@H]1[C@@H](CC[C@@H](O)CCc2ccccc2)[C@H](O)C[C@@H]1O [latanoprost, Latanoprost]
latanoprost found to be dissolved in the vehicle: 20.8 µg/mL
